{
  "source": "paper PMC2374418",
  "about": "“A prolonged methoxymorpholino doxorubicin (PNU-152243 or MMRDX) infusion schedule in patients with solid tumours: a phase 1 and pharmacokinetic study” (British Journal of Cancer, 2000)",
  "key": {"[1]": {"tested_on": "patients with intrinsic anthracycline-resistant tumours", "experiment": "Phase I toxicity (CTC grading), MMRDX as 3 h intravenous infusion once every 4 weeks", "description": "(§1) Nowadays, anthracyclines play an important role in chemothera- peutic treatment of a wide variety of tumour types. The clinical use of anthracyclines is limited by their toxicity profile, especially irreversible, cumulative dose-related cardiotoxicity, and by intrinsic or acquired resistance of tumours cells. Mechanisms of this resistance consist of several pathways, such as overexpression of drug efflux pumps (i.e. P-glycoprotein), decrease in topoiso- merase II enzyme levels, and increase in cellular detoxifying capacity (Kaye and Merry, 1985; Deffie et al, 1989; de Jong et al, 1990; Ford and Hait, 1990; Roninson, 1997). Morpholinyl anthracyclines, such as methoxymorpholino doxorubicin (MMRDX or PNU-152243), were synthesized in search for new anthracyclines with at least partially novel modes of action, including activity on multidrug-resistant (MDR) tumours. MMRDX is a novel doxorubicin derivative in which the nitrogen atom of the daunosamine is enclosed in a methoxymor- pholino ring (Figure 1). […] The working mechanism of morpholinyl anthracyclines appears to be different from other anthracyclines. Morpholinyl anthracyclines inhibit ribosomal gene transcription as well as topoisomerase I-mediated DNA-cleavage (Wassermann et al, 1988, 1990). […] Metabolic conversion of MMRDX by human liver microsomes and NADPH potentiated the cytotoxicity in an ovarian carcinoma cell line (Lau et al, 1994). […] Therefore, we decided to perform a phase I study with MMRDX administered as a 3 h infusion every 4 weeks in order to try to increase the MTD as compared with bolus administration. In addition, we assessed pharmacokinetics of prolonged MMRDX-infusion. A prolonged methoxymorpholino doxorubicin (PNU- 152243 or MMRDX) infusion schedule in patients with solid tumours: a phase 1 and pharmacokinetic study E Fokkema1 , J Verweij2 , AT van Oosterom3 , DRA Uges1 , R Spinelli4 , O Valota4 , EGE de Vries1 and HJM Groen1 1 Department of Pulmonology, Department of Pharmacy, Department of Internal Medicine, University Hospital Groningen, PO Box 30.001, 9700 RB Groningen, The Netherlands; 2 Rotterdam Cancer Institute and University Hospital, Rotterdam, The Netherlands; 3 University Hospital Leuven, Belgium; 4 Pharmacia & Upjohn, Milan, Italy Summary The aim of this phase I study was to assess feasibility, pharmacokinetics and toxicity of methoxymorpholino doxorubicin (MMRDX or PNU-152243) administered as a 3 h intravenous infusion once every 4 weeks. […] The first cohort of patients was treated with 1 mg m-2 of MMRDX. The next cohorts received 1.25 mg m-2 and 1.5 mg m-2 respectively. […] (c) 2000 Cancer Research Campaign Keywords: methoxymorpholino doxorubicin; pharmacokinetics; phase I study 767 Received 6 January 1999 Revised 2 August 1999 Accepted 25 August 1999 Correspondence to: EGE de Vries British Journal of Cancer (2000) 82(4), 767-771 (c) 2000 Cancer Research Campaign DOI: 10.1054/ bjoc.1999.0996, available online at http://www.idealibrary.com on PATIENTS AND METHODS Patients The study was performed between December 1994 and June 1996. Patients with intrinsic anthracycline-resistant tumours were accrued in three different centres in Belgium and The Netherlands."}, "[2]": {"experiment": "Pharmacokinetics in plasma and urine, first cycle, non-compartmental analysis", "description": "as §1"}, "[3]": {"tested_on": "intrinsically anthracycline-resistant tumours", "experiment": "Tumour response according to WHO criteria", "format": "in vivo, human", "details": "3 h i.v. infusion, 1.0-1.5 mg m-2, 13 evaluable patients", "description": "Nowadays, anthracyclines play an important role in chemothera- peutic treatment of a wide variety of tumour types. The clinical use of anthracyclines is limited by their toxicity profile, especially irreversible, cumulative dose-related cardiotoxicity, and by intrinsic or acquired resistance of tumours cells. Mechanisms of this resistance consist of several pathways, such as overexpression of drug efflux pumps (i.e. P-glycoprotein), decrease in topoiso- merase II enzyme levels, and increase in cellular detoxifying capacity (Kaye and Merry, 1985; Deffie et al, 1989; de Jong et al, 1990; Ford and Hait, 1990; Roninson, 1997). Morpholinyl anthracyclines, such as methoxymorpholino doxorubicin (MMRDX or PNU-152243), were synthesized in search for new anthracyclines with at least partially novel modes of action, including activity on multidrug-resistant (MDR) tumours. MMRDX is a novel doxorubicin derivative in which the nitrogen atom of the daunosamine is enclosed in a methoxymor- pholino ring (Figure 1). […] The working mechanism of morpholinyl anthracyclines appears to be different from other anthracyclines. Morpholinyl anthracyclines inhibit ribosomal gene transcription as well as topoisomerase I-mediated DNA-cleavage (Wassermann et al, 1988, 1990). […] In addition, we assessed pharmacokinetics of prolonged MMRDX-infusion. […]"}, "patients": {"tested_on": "patients", "set-up": "method as in Vasey et al, 1995", "details": "ref Vasey et al, 1995, cited from earlier work"}, "[4]": {"tested_on": "patients with various intrinsically anthracycline resistant solid tumours", "details": "1998, cited from earlier work"}, "rats": {"tested_on": "rats", "set-up": "method as in Danesi et al, 1993", "details": "ref Danesi et al, 1993; cited from earlier work"}, "[5]": {"tested_on": "various tumour cell lines, including MDR tumour cell lines", "set-up": "method as in ref Danesi et al, 1993; Kuhl et al, 1993; van der Graaf et al, 1995; Bakker et al, 1997", "details": "ref Danesi et al, 1993, Kuhl et al, van der Graaf et al, 1995, Bakker et al, 1997; cited from earlier work"}, "MDR xenografts": {"tested_on": "MDR xenografts", "set-up": "method as in Ripamonti et al, 1992", "details": "animal studies, ref Ripamonti et al, 1992; cited from earlier work"}, "[6]": {"set-up": "method as in ref Johnston and Glazer, 1983; Acton et al, 1984; Streeter et al, 1986", "details": "ref Johnston and Glazer, 1983; Acton et al, 1984; Streeter et al, 1986; cited from earlier work"}},
  "data": [
    {"smiles": "COc1cccc2c1C(=O)c1c(O)c3c(c(O)c1C2=O)C[C@@](O)(C(=O)CO)C[C@@H]3O[C@H]1C[C@H](N2CCO[C@H](OC)C2)[C@H](O)[C@H](C)O1", "note": "[MMRDX, methoxymorpholino doxorubicin]", "values": [
      {"measurement": "Transient elevation in transaminases up to CTC grade III", "setting": "[1]; 3 h i.v. infusion, 1.5 mg m-2", "result": "4/11"},
      {"measurement": "Cardiotoxicity", "setting": "[1]; 3 h i.v. infusion, all dose levels", "result": "No cardiotoxicity"},
      {"measurement": "LVEF at the end of treatment in eight patients", "setting": "[1]; after two to six cycles", "result": "No significant decreases"},
      {"measurement": "Grade III/IV toxicity for haemoglobin", "setting": "[1]; all dose levels", "result": "No grade III/IV toxicity"},
      {"measurement": "Phlebitis at the infusion site, nephro- and neurotoxicity", "setting": "[1]; all dose levels", "result": "No phlebitis at the infusion site and no nephro- or neurotoxicity"},
      {"measurement": "Start of late nausea and vomiting", "setting": "[1]; all dose levels", "result": "around 4 days after treatment"},
      {"measurement": "Decrease in LVEF, one patient", "setting": "[1]; highest dose level, after three cycles, LVEF remained in the normal range", "result": 13, "unit": "%"},
      {"measurement": "Time of late haematological toxicity", "setting": "[1]; main toxicity", "result": "~22", "unit": "day"},
      {"measurement": "Cumulative haematological toxicity for subsequent cycles", "setting": "[1]; overall", "result": "no cumulative haematological toxicity for subsequent cycles, except for platelets at the highest dose level"},
      {"measurement": "% Dose in urine, median (range)", "setting": "[2]; 1.0 mg m-2 (n = 3)", "result": "1.6 (0.53-1.74) %"},
      {"measurement": "% Dose in urine, median (range)", "setting": "[2]; 1.25 mg m-2 (n = 6)", "result": "2.1 (0.35-2.6) %"},
      {"measurement": "Cl (plasma clearance), median (range)", "setting": "[2]; 1.25 mg m-2, n = 4", "result": "649.0 (506.3-812.3) ml min-1 m-2"},
      {"measurement": "Vss, median (range)", "setting": "[2]; 1.25 mg m-2, n = 4", "result": "2891.5 (1742-3371) l m-2"},
      {"measurement": "Vz, median (range)", "setting": "[2]; 1.25 mg m-2, n = 4", "result": "3942.5 (1997-4540) l m-2"},
      {"measurement": "t1/2 z (printed 'tA z'), median (range)", "setting": "[2]; 1.25 mg m-2, n = 4", "result": "60.9 (45.6-88.8) h"},
      {"measurement": "% Dose in urine, median (range)", "setting": "[2]; 1.5 mg m-2 (n = 3)", "result": "2.47 (1.71-2.49) %"},
      {"measurement": "Cl (plasma clearance), median (range)", "setting": "[2]; 1.5 mg m-2, n = 2", "result": "741.2 (659-823.2) ml min-1 m-2"},
      {"measurement": "Vss, median (range)", "setting": "[2]; 1.5 mg m-2, n = 2", "result": "2693.0 (2585-2801) l m-2"},
      {"measurement": "Vz, median (range)", "setting": "[2]; 1.5 mg m-2, n = 2", "result": "2908.5 (2574-3243) l m-2"},
      {"measurement": "t1/2 z (printed 'tA z'), median (range)", "setting": "[2]; 1.5 mg m-2, n = 2", "result": "46.5 (36.1-56.9) h"},
      {"measurement": "Renal excretion", "setting": "[2]; 3 h i.v. infusion", "result": "negligible"},
      {"measurement": "Correlation between AUC0-tz or Cmax and nadirs of haemoglobin, platelets, leucocytes and neutrophils", "setting": "[2]; pharmacodynamic analysis, linear regression, first cycle", "result": "no correlation"},
      {"measurement": "AUC 0-tz, median (range)", "setting": "[2]; plasma, 1.0 mg m-2 (n = 3)", "result": "9.4 (8.3-18.3) ng h ml-1"},
      {"measurement": "Cmax, median (range)", "setting": "[2]; plasma, 1.0 mg m-2 (n = 3)", "result": "2.8 (1.8-6.2) ng ml-1"},
      {"measurement": "Cmax, one patient with high value", "setting": "[2]; plasma, 1 mg m-2, one patient", "result": 6.17, "unit": "ng/mL"},
      {"measurement": "AUC 0-tz, median (range)", "setting": "[2]; plasma, 1.25 mg m-2 (n = 6)", "result": "15.1 (10.1-30.4) ng h ml-1"},
      {"measurement": "Cmax, median (range)", "setting": "[2]; plasma, 1.25 mg m-2 (n = 6)", "result": "2.3 (1.1-2.7) ng ml-1"},
      {"measurement": "AUC 0-tz, median (range)", "setting": "[2]; plasma, 1.5 mg m-2 (n = 3)", "result": "21.4 (5.7-26.9) ng h ml-1"},
      {"measurement": "Cmax, median (range)", "setting": "[2]; plasma, 1.5 mg m-2 (n = 3)", "result": "1.4 (1.2-2.1) ng ml-1"},
      {"measurement": "Cmax, all other patients", "setting": "[2]; plasma, all dose levels", "result": "around 2.0 ng ml-1"},
      {"measurement": "AUC0-infinity from non-compartmental analysis", "setting": "[2]; similar for all dose levels, seven patients", "result": "around 30 ng h ml-1"},
      {"measurement": "Tumour responses", "setting": "[3]", "result": "No tumour response"},
      {"measurement": "Grade IV neutropenia", "setting": "patients; 1.5 mg m-2 bolus every 3 weeks", "result": "14 % of administered cycles"},
      {"measurement": "Dose-limiting toxicity (DLT)", "setting": "patients; bolus injection every 3 weeks", "result": "myelosuppression (neutropenia and thrombocytopenia)"},
      {"measurement": "Maximum tolerated dose (MTD)", "setting": "patients; bolus injection every 3 weeks", "result": 1.5, "unit": "mg m-2"},
      {"measurement": "Plasma clearance", "setting": "patients; bolus", "result": 650, "unit": "ml min-1 m-2"},
      {"measurement": "t1/2 after a rapid distribution phase", "setting": "patients; bolus", "result": 40, "unit": "h"},
      {"measurement": "Tumour responses", "setting": "patients; head and neck (one out of three), cervical cancer (one out of five), colorectal cancer (two out of 20)", "result": "four responses"},
      {"measurement": "Grade IV neutropenia", "setting": "[4]; 1.5 mg m-2 bolus every 4 weeks, ref Bakker et al", "result": "9 % of administered cycles"},
      {"measurement": "Tumour responses", "setting": "[4]; NSCLC, ref Bakker et al", "result": "one partial response in one out of 17 NSCLC"},
      {"measurement": "Plasma clearance", "setting": "[4]; bolus, ref Bakker et al", "result": 620, "unit": "ml min-1 m-2"},
      {"measurement": "t1/2 of the elimination phase", "setting": "[4]; bolus, ref Bakker et al", "result": 49, "unit": "h"},
      {"measurement": "Patients taken off study due to a decrease in LVEF", "setting": "[4]; phase II study, ref Vasey et al, 1995, Bakker et al", "result": "two patients"},
      {"measurement": "Cardiotoxicity in rats", "setting": "rats", "result": "no substantial cardiotoxicity"},
      {"measurement": "Cytotoxic activity in vitro", "setting": "[5]", "result": "potent cytotoxic activity"},
      {"measurement": "Activity against MDR xenografts", "setting": "MDR xenografts", "result": "showed activity"},
      {"measurement": "Lipophilicity", "setting": "[6]", "result": "high lipophilicity"}
    ]}
  ]
}
